Like-named read-outs stand apart in the source and are kept apart here.
Test system: U-373MG cells
Type: cell-based, human

Compound | effect on the difference in plaque size between VSV-rp30 and VSV-G/GFP (10 μM, 24 hrs) | effect on the difference in plaque size between VSV-rp30 and VSV-G/GFP
O=c1c(-c2ccc(O)cc2)coc2cc(O)cc(O)c12 [Genistein, genistein] | significantly attenuated the difference in plaque size | –
CN[C@@H]1C[C@H]2O[C@@](C)([C@@H]1OC)n1c3ccccc3c3c4c(c5c6ccccc6n2c5c31)C(=O)NC4 [Staurosporine, staurosporine] | – | significant attenuation of the difference in plaque size
tyrphostin 51 | – | no significant effect on the difference in plaque size

Reference: patent US8481297B2 (priority 2009, dated 2013)
